Measurements published in US7468375B2 (Pfizer Inc., priority 2004, dated 2008).
Read-outs that look alike come from different tables or passages of the source.

Tests used:
[1] = tested on: RF strain of HIV-1 in CEM-SS cells; experiment: HIV-1 cell protection assay (XTT dye reduction); assay type: cell-based; conditions: Human immunodeficiency virus 1, CEM-SS, 144 h
Description: HIV-1 Cell Protection Assay
The antiviral activities of potential modulator compounds (test compounds) were determined in HIV-1 cell protection assays using the RF strain of HIV-1, CEM-SS cells, and the XTT dye reduction method (Weislow, O. S. et al., J. Natl. Cancer Inst. 81: 577-586 (1989)). Subject cells were infected with HIV-1 RF virus at an moi of 0.025 to 0.819 or mock infected with medium only and added at 2×10^4 cells per well into 96 well plates containing half-log dilutions of test compounds. Six days later, 50 μl of XTT solution (1 mg/ml XTT tetrazolium and […] phenazine methosulfate) were added to the wells and the plates were reincubated for four hours. Viability, as determined by the amount of XTT formazan produced, was quantified spectrophotometrically by absorbance at 450 nm. Data from CPE assays were expressed as the percent of formazan produced in compound-treated cells compared to formazan produced in wells of uninfected, compound-free cells. […] The therapeutic index was calculated by dividing the cytotoxicity (CC50) by the antiviral activity (EC50).

[2] = target: T1, Full-length wild type HIV-1 integrase (SF1) (Human immunodeficiency virus type 1 group M subtype B, UniProt P04585); experiment: Integrase strand-transfer scintillation proximity assay; assay type: biochemical; conditions: 50 min at 37° C., 246 nM integrase, 50 nM host DNA
T1 construct: made in house; host or cells: E. coli BL21 (DE3)
From the text: Integrase Strand-Transfer Scintillation Proximity Assay Oligonucleotides
Oligonucleotide #1-5′-(biotin)[…]-3′ (SEQ ID NO: 1) and oligonucleotide #2-5′-[…]-3′ (SEQ ID NO: 2), were synthesized by TriLink BioTechnologies, Inc. (San Diego, Calif.). The annealed product represents preprocessed viral ds-DNA derived from the LTR U5 sequence of the viral genome. A ds-DNA control to test for non-specific interactions was made using a 3′ di-deoxy derivative of oligonucleotide #1 annealed to oligonucleotide #2. The CA overhang at the 5′ end of the non-biotinylated strand of the ds-DNA was created artificially by using a complimentary DNA oligonucleotide shortened by 2 base pairs. This configuration eliminates the requisite 3′ processing step of the integrase enzyme prior to the strand-transfer mechanism. Host ds-DNA was prepared as an unlabeled and [^3H]-thymidine labeled product from annealed oligonucleotide #3-5-[…]-3′ (SEQ ID NO: 3), and oligonucleotide #4-5′-[…]-3′ (SEQ ID NO: 4), both synthesized by TriLink BioTechnologies, Inc. (San Diego, Calif.). The annealed product had overhanging 3′ ends of poly(dA). Host DNA was custom radiolabeled by PerkinElmer Life Sciences Inc. (Boston, Mass.) using an enzymatic method with a 12/1 ratio of [methyl-3H]dTTP/cold ds-DNA to yield 5′-blunt end ds-DNA with a specific activity of >900 Ci/mmol. The radiolabeled product was purified using a NENSORB cartridge and stored in stabilized aqueous solution (PerkinElmer). The final radiolabeled product had six [^3H]-thymidine nucleotides at both 5′ ends of the host ds-DNA. Reagents: Streptavidin-coated polyvinyltoluene (PVT) SPA beads were purchased from Amersham Biosciences (Piscataway, N.J.). Cesium chloride was purchased from Shelton Scientific, Inc. (Shelton, Conn.). White, polystyrene, flat-bottom, non-binding surface, 96-well plates were purchased from Corning. All other buffer components were purchased from Sigma (St. Louis, Mo.) unless otherwise indicated.
Enzyme Construction: Full-length wild type HIV-1 integrase (SF1) sequence (amino acids 1-288) was constructed in a pET24a vector (Novagen, Madison, Wis.). The construct was confirmed through DNA sequencing. Enzyme Purification: Full length wild-type HIV Integrase was expressed in E. coli BL21 (DE3) cells and induced with 1 mM isopropyl-1 thio-β-D-galactopyranoside (IPTG) when cells reached an optical density between 0.8-1.0 at 600 nm. Cells were lysed by microfluidation in 50 mM HEPES pH 7.0, 75 mM NaCl, 5 mM DTT, 1 mM 4-(2-Aminoethyl)benzenesulfonylfluoride HCl (AEBSF). Lysate was then centrifuged 20 minutes at 11 k rpm in GSA rotor in Sorvall RC-5B at 4° C. Supernant was discarded and pellet resuspended in 50 mM HEPES pH 7.0, 750 mM NaCl, 5 mM DTT, 1 mM AEBSF and homogenized in a 40 mL Dounce homogenizer for 20 minutes on ice. Homogenate was then centrifuged 20 minutes at 11 k rpm in SS34 rotor in Sorvall RC-5B at 4° C. Supernant was discarded and pellet resuspended in 50 mM HEPES pH 7.0, 750 mM NaCl, 25 mM CHAPS, 5 mM DTT, 1 mM AEBSF. Preparation was then centrifuged 20 minutes at 11 k rpm in SS34 rotor in Sorvall RC-5B at 4° C. Supernant was then diluted 1:1 with 50 mM HEPES pH 7.0, 25 mM CHAPS, 1 mM DTT, 1 mM AEBSF and loaded onto a Q-Sepharose column pre-equilibrated with 50 mM HEPES, pH 7.0, 375 mM NaCl, 25 mM CHAPS, 1 mM DTT, 1 mM AEBSF. The flow through peak was collected and NaCl diluted to 0.1 M with 50 mM HEPES pH 7.0, 25 mM CHAPS, 1 mM DTT, 0.5 mM AEBSF and loaded onto a SP-Sepharose column pre-equilibrated with 50 mM HEPES pH 7.0, 100 mM NaCl, 25 mM CHAPS, 1 mM DTT, 0.5 mM AEBSF. After washing the column with the equilibration buffer, a 100 to 400 mM NaCl gradient was run. The eluted integrase was concentrated and run on a S-300 gel diffusion column using 50 mM HEPES pH 7.0, 500 mM NaCl, 25 mM CHAPS, 1 mM DTT, 0.5 mM AEBSF. The peak from this column was concentrated to 0.76 mg/mL and stored at −70° C. and later used for strand transfer assays. […]

[3] = strand transfer, read-out: IC50
[4] = HIV-1 RF, CEM-SS cells, XTT dye reduction, six days, read-out: EC50

SMILES | EC50 [1] [nM] | IC50 [2, 3] [nM] | EC50 [1, 4] [nM] | IC50 ([2]; IC50, strand transfer) [nM]
CN(O)C(=O)c1cc2c(CN3CCNC(=O)C3)cn(Cc3ccc(F)cc3)c2cn1 [Example 114, 1-(4-fluorobenzyl)-N-hydroxy-N-methyl-3-[(3-oxopiperazin-1-yl)methyl]-1H-pyrrolo[2,3-c] pyridine-5-carboxamide] | 351 | 150 | – | –
CCONC(=O)c1cc2c(CN(C)CCCN(C)C)cn(Cc3ccc(F)cc3)c2cn1 [Example 116, 3-{[[3-(Dimethylamino)propyl](methyl)amino]methyl}-N-ethoxy-1-(4-fluorobenzyl)-1H-pyrrolo[2,3-c]pyridine-5-carboxamide] | – | – | 3900 | –
O=C(NO)c1cc2c(CNCCc3ccccn3)cn(Cc3ccc(F)cc3F)c2cn1 [Example 56] | – | 278 | 11 | –
O=C(NO)c1cc2c(cn1)c(Cc1ccc(F)cc1)cn2Cc1ccc(F)cc1 [Example 32, 1,3-Bis(4-fluorobenzyl)-N-hydroxy-1H-pyrrolo[3,2-c]pyridine-6-carboxamide] | – | 215 | 25 | –
CC(O)CNCc1cn(Cc2ccc(F)cc2F)c2cnc(C(=O)NO)cc12 (stereo not drawn) [Example 65, 1-(2,4-Difluorobenzyl)-N-hydroxy-3-{[(2-hydroxypropyl)amino]methyl}-1H-pyrrolo[2,3-c]pyridine-5-carboxamide] | – | 625 | 14 | –
COCc1cn(Cc2ccc(F)cc2)c2cnc(C(=O)N(C)O)cc12 [Example 122, 1-(4-Fluorobenzyl)-AN-hydroxy-3-(methoxymethyl)-N-methyl-1H-pyrrolo[2,3-c]pyridine-5-carboxamide] | 242 | – | – | –
CC1(C)OC[C@H](COCc2cn(Cc3ccc(F)cc3)c3cnc(C(=O)NO)cc23)O1 [Example 111, 3-({[(4S)-2,2-dimethyl-1,3-dioxolan-4-yl]methoxy}methyl)-1-(4-fluorobenzyl)-N-hydroxy-1H-pyrrolo[2,3-c]pyridine-5-carboxamide] | – | 20 | 77.4 | –
CCCN(Cc1cn(Cc2ccc(F)cc2F)c2cnc(C(=O)NO)cc12)CC1CC1 [Example 73, 3-{[(Cyclopropylmethyl)(propyl)amino]methyl}-1-(2,4-difluorobenzyl)-N-hydroxy-1H-pyrrolo[2,3-c]pyridine-5-carboxamide] | – | 658 | 35 | –
CN(O)C(=O)c1cc2c(CN3[C@H]4CC[C@@H]3C(=O)NC4)cn(Cc3ccc(F)cc3)c2cn1 [Example 34, (4-Fluorobenzyl)-N-hydroxy-N-methyl-3-{[(1R,5S)-2-oxo-3,8-diazabicyclo[3.2.1]oct-8-yl]methyl}-1H-pyrrolo[2,3-c]pyridine-5-carboxamide] | 170 | 490 | – | –
CN1CCN(Cc2cn(Cc3ccc(F)cc3F)c3cnc(C(=O)N(C)O)cc23)CC1 [Example 13] | – | – | 220 | 695
COc1c(C(=O)N(C)O)ncc2c1ccn2Cc1ccc(F)cc1 [Example 44, 1-(4-Fluorobenzyl)-N-hydroxy-4-methoxy-N-methyl-1H-pyrrolo[2,3-c]pyridine-5-carboxamide] | – | 2250 | 1200 | –
CCOC(=O)N1C2CC[C@@H]1CC(NCc1cn(Cc3ccc(F)cc3F)c3cnc(C(=O)NO)cc13)C2 (stereo in doubt) [Example 97, Ethyl (1R,5S)-3-[({1-(2,4-difluorobenzyl)-5-[(hydroxyamino)carbonyl]-1H-pyrrolo[2,3-c]pyridin-3-yl}methyl)amino]-8-azabicyclo[3.2.1]octane-8-carboxylate] | 20 | 311 | – | –
O=C(NO)c1cc2c(CN[C@@H]3C[C@H]4CC[C@@H]3C4)cn(Cc3ccc(F)cc3F)c2cn1 [Example 74, 3-{[(1R,2R,4S)-Bicyclo[2.2.1]hept-2-ylamino]methyl}-1-(2,4-difluorobenzyl)-N-hydroxy-1H-pyrrolo[2,3-c]pyridine-5-carboxamide] | – | 357 | 32 | –
O=C(NO)c1cc2c(CN3CCOCC3)cn(Cc3ccc(F)cc3F)c2cn1 [Example 2, 1-(2,4-difluorobenzyl)-N-hydroxy-3-(morpholin-4-ylmethyl)-1H-pyrrolo[2,3-c]pyridine-5-carboxamide] | – | 52.3 | 68 | –
CONC(=O)c1cc2c(CN3CCN(C)CC3)cn(Cc3ccc(F)cc3F)c2cn1 [Example 37, 1-(2,4-Difluorobenzyl)-N-methoxy-3-[(4-methylpiperazin-1-yl)methyl]-1H-pyrrolo[2,3-c]pyridine-5-carboxamide] | – | 528 | 46 | –
CC(C)C(CO)NCc1cn(Cc2ccc(F)cc2F)c2cnc(C(=O)NO)cc12 (stereo not drawn) [Example 78, 1-(2,4-Difluorobenzyl)-N-hydroxy-3-({[1-(hydroxymethyl)-2-methylpropyl]amino}methyl)-1H-pyrrolo[2,3-c]pyridine-5-carboxamide] | – | 571 | 83 | –
CN(C)CCCNCc1cn(Cc2ccc(F)cc2F)c2cnc(C(=O)NO)cc12 [Example 4] | – | 343 | 85 | –
C=Cc1c(C(=O)NO)ncc2c1ccn2Cc1ccc(F)cc1 [Example 39, 1-(4-Fluorobenzyl)-N-hydroxy-4-vinyl-1H-pyrrolo[2,3-c]pyridine-5-carboxamide] | – | – | 3.05 | –
CCOCCOCc1cn(Cc2ccc(F)cc2)c2cnc(C(=O)NOC)cc12 [Example 121, 3-[(2-Ethoxyethoxy)methyl]-1-(4-fluorobenzyl)-N-methoxy-1H-pyrrolo[2,3-c]pyridine-5-carboxamide] | – | – | 512 | –
CCCN(CCO)Cc1cn(Cc2ccc(F)cc2)c2cnc(C(=O)NOCC)cc12 [Example 115, N-ethoxy-1-(4-fluorobenzyl)-3-{[(2-hydroxyethyl)(propyl)amino]methyl}-1H-pyrrolo[2,3-c]pyridine-5-carboxamide] | – | – | 3700 | –
O=C(NO)c1cc2cnn(Cc3ccc(F)cc3)c2cn1 [Example 35, 1-(4-Fluorobenzyl)-N-hydroxy-1H-pyrazolo[3,4-c]pyridine-5-carboxamide] | – | 446 | – | –
